Source: patent US20150368248A1, “2-SUBSTITUTED-6-BIARYLMETHYLAMINO-9-CYCLOPENTYL-9H-PURINE DERIVATIVES, USE THEREOF AS MEDICAMENTS, AND PHARMACEUTICAL COMPOSITIONS” (UNIVERZITA PALACKEHO V OLOMOUCI, priority 2013, published 2015)

How the values were obtained:
[1] = test system: p53-regulated transcription in Arn8 cells; experiment: p53-dependent transcriptional activity, β-galactosidase reporter; format: cell-based; details: 24 h incubation
Outline: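 Arn8 melanoma cells stably carrying the p53-responsive pRGCAfoslacZ reporter, exposed to compounds for 24 h. Cells permeabilised with 0.3% Triton X-100 for 15 min, then given 80 μM 4-methylumbelliferyl-β-D-galactopyranoside. β-Galactosidase product fluorescence read after 1 h at 355/460 nm.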

HepG2 = experiment: MTT cytotoxicity assay (Example 30); format: cell-based; details: Homo sapiens, HepG2, 72 h; MTT, three days after drug addition; read-out: Inhibitory concentration IC50, HepG2
Outline: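 HepG2 cells in EMEM with 10% FBS, seeded at 10000 per well, dosed next day in triplicate at various concentrations. Three days later MTT added for 4 h; formazan dissolved in DMSO and absorbance read at 570 nm.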

[2] = test system: caspase-3/7 activity in PLC/PRF/5 cell line; experiment: One-step cellular caspase-3/7 activity assay; format: cell-based, human; details: 24 hours incubation, relative to 0 nM = 1.00
Outline: (§1)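 Hep3B or PLC/PRF/5 cells, plated overnight, were exposed to compounds for 24 h. Lysis buffer containing 150 μM Ac-DEVD-AMC substrate was added, and plates were incubated at 37° C. Caspase-3/7 activity was read as AMC fluorescence (ex 346/em 442 nm) after 6 h.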

[3] = test system: caspase-3/7 activity in Hep3B cell line; experiment: One-step cellular caspase-3/7 activity assay; format: cell-based, human; details: 24 hours, 0 nM = 1.00
Outline: as §1

CDK1/cyclin B = biological target: T1, CDK1/cyclin B (Homo sapiens, UniProt P06493); experiment: Kinase inhibition assay, recombinant kinase, [γ-33P]ATP; format: biochemical; details: read-out: Kinase inhibition IC50, CDK1
T1 construct: made in house; host or cells: Sf9 insect cells (baculovirus)
T1 sequence (P06493 whole entry, species assumed): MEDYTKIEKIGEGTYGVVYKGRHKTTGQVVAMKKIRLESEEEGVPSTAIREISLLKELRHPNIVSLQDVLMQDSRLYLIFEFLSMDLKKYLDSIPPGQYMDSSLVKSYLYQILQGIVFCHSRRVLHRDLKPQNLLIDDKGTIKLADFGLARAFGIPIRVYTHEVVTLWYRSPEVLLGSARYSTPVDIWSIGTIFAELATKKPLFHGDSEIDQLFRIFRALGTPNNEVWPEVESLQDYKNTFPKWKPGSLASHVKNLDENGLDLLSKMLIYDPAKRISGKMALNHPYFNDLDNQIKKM
T1 sequence (P14635 whole entry partner, species assumed): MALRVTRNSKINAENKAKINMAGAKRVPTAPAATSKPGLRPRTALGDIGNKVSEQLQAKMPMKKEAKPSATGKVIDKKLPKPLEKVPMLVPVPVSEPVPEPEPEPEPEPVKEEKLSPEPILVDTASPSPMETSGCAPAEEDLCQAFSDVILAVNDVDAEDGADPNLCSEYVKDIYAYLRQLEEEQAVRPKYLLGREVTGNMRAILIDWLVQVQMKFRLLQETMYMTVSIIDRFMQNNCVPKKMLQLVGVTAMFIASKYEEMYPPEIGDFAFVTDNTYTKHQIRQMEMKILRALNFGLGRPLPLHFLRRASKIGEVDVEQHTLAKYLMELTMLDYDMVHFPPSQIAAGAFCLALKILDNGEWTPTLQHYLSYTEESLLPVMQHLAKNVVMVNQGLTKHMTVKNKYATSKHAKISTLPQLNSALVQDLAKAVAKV
Method: CDK2/Cyclin E kinase was produced in Sf9 insect cells via baculoviral infection and purified on a NiNTA column (Qiagen). CDK5/p35, CDK7Cyclin H/MAT1 and CDK9/Cyclin T1 was purchased from ProQinase GmbH. […] The reactions were stopped by adding 5 μL of 3% aq H3PO4. Aliquots were spotted onto P-81 phosphocellulose (Whatman), washed 3× with 0.5% aq H3PO4 and finally air-dried.
CDK1/cyclin B and CDK2/cyclin E kinases were produced in Sf9 insect cells via baculoviral infection, while CDK5/p35, CDK7/cyclin H/MAT1, and CDK9/cyclin T1 were purchased from ProQinase (Freiburg, Germany) and assayed as described previously (35). The kinase reactions were assayed with 1 mg/ml histone H1 (for CDK2 and CDK5) or (YSPTSPS)2KK peptide (for CDK7 and CDK9) in the presence of 15/0.15/1.5/1.5 […] ATP (for CDK2/CDK5/CDK7CDK9), […] [γ-^33P]ATP and of the test compound in a final volume of […]. The reaction buffer contained 60 mM HEPES-NaOH, pH 7.5, 3 mM MgCl2, 3 mM MnCl2, 3 mM Na-orthovanadate, 1.2 mM DTT, 2.5 mg/50 ml PEG20.000. The reactions were stopped by adding […] of 3% H3PO4. Aliquots were spotted onto P-81 phosphocellulose (Whatman, GE Healthcare Biosciences, Pittsburgh, USA), washed 3 times with 0.5% H3PO4 and finally air-dried. Kinase inhibition was quantified using a FLA-7000 digital image analyzer (Fujifilm, Tokyo, Japan).

| Structure (SMILES) | Concentration of maximum activation [1] [nM] | melting point [°C] | IC50 (HepG2) [nM] | Relative caspase-3/7 activity in PLC/PRF/5 cell line ([2]; compound concentration 40 nM) | Relative caspase-3/7 activity in PLC/PRF/5 cell line ([2]; compound concentration 80 nM) | Relative caspase-3/7 activity in PLC/PRF/5 cell line ([2]; compound concentration 160 nM) | Relative caspase-3/7 activity in PLC/PRF/5 cell line ([2]; compound concentration 320 nM) | Relative caspase-3/7 activity in PLC/PRF/5 cell line ([2]; compound concentration 640 nM) | Relative caspase-3/7 activity in PLC/PRF/5 cell line ([2]; compound concentration 1280 nM) | Relative caspase-3/7 activity in Hep3B cell line ([3]; 200 nM) | Relative caspase-3/7 activity in Hep3B cell line ([3]; 400 nM) | Relative caspase-3/7 activity in Hep3B cell line ([3]; 800 nM) | Relative caspase-3/7 activity in Hep3B cell line ([3]; 1600 nM) | IC50 (CDK1/cyclin B) [nM] | Relative caspase-3/7 activity in Hep3B cell line ([3]; 100 nM) |
| --- | --- | --- | --- | --- | --- | --- | --- | --- | --- | --- | --- | --- | --- | --- | --- |
| COc1ccccc1-c1ccc(CNc2nc(NC3CCC(N)CC3)nc3c2ncn3C2CCCC2)cc1 (stereo not drawn) [BP16, N^2-(4-amino-cyclohexyl)-9-cyclopentyl-N^6-(2′-methoxy-biphenyl-4-ylmethyl)-9H-purine-2,6-diamine] | 943 | 178 to 180 | 937 | 1.01 | 0.73 | 1.15 | 2.42 | >5.00 | >5.00 | 0.93 | 1.26 | 2.82 | 7.07 | 301 |  |
| COc1ccccc1-c1ccc(CNc2nc(NC3CCC(N)CC3)nc3c2ncn3C2CCCC2)cn1 (stereo not drawn) [BP18, N^2-(4-amino-cyclohexyl)-9-cyclopentyl-N^6-[6-(2-methoxy-phenyl)-pyridin-3-ylmethyl]-9H-purine-2,6-diamine] | 510 | 184 to 186 | 417 | 0.97 | 2.40 | >5.00 | >5.00 | >5.00 | >5.00 | 0.89 | 3.19 | 6.05 | 8.59 | 118 |  |
| NC1CCC(Nc2nc(NCc3ccc(-c4cccc(F)c4)nc3)c3ncn(C4CCCC4)c3n2)CC1 (stereo not drawn) [BP19, N^2-(4-amino-cyclohexyl)-9-cyclopentyl-N^6-[6-(3-fluoro-phenyl)-pyridin-3-ylmethyl]-9H-purine-2,6-diamine] | 167 | 121 to 122 | 111 | 1.78 | 2.39 | >5.00 | >5.00 | >5.00 | >5.00 | 4.82 | 6.60 | 9.80 | 9.45 | 77 | 0.90 |
| NC1CCC(Nc2nc(NCc3ccc(-c4ccccc4O)nc3)c3ncn(C4CCCC4)c3n2)CC1 (stereo not drawn) [BP20, N^2-(4-amino-cyclohexyl)-9-cyclopentyl-N^6-[6-(2-hydroxy-phenyl)-pyridin-3-ylmethyl]-9H-purine-2,6-diamine] | 150 | 202 to 203 | 68 | 3.15 | 2.66 | >5.00 | >5.00 | >5.00 | >5.00 | 5.37 | 8.25 | 9.63 | 9.95 | 47 | 4.42 |
| OC1CCC(Nc2nc(NCc3ccc(-c4ccco4)nc3)c3ncn(C4CCCC4)c3n2)CC1 (stereo not drawn) [BP21, 4-{9-cyclopentyl-6-[(6-furan-2-yl-pyridin-3-ylmethyl)-amino]-9H-purine-2-ylamino}-cyklohexanol] | 918 | 164 to 166 | 38 | 0.69 | 1.20 | 2.19 | 3.39 | >5.00 | >5.00 | 1.15 | 1.18 | 4.36 | 7.19 | 215 |  |
| Nc1ccccc1-c1ccc(CNc2nc(NC3CCC(N)CC3)nc3c2ncn3C2CCCC2)cn1 (stereo not drawn) [BP22, N^2-(4-amino-cyclohexyl)-9-cyclopentyl-N^6-[6-(2-amino-phenyl)-pyridin-3-ylmethyl]-9H-purine-2,6-diamine] | 373 | 173 to 175 | > 1000 |  |  | 0.72 | 1.08 | 1.92 | 3.50 | 0.81 | 0.80 | 0.81 | 1.18 | 100 |  |
| NC1CCC(Nc2nc(NCc3ccc(-n4cccn4)cc3)c3ncn(C4CCCC4)c3n2)CC1 (stereo not drawn) [BP24, N^2-(4-amino-cyclohexyl)-9-cyclopentyl-N^6-(4-pyrazol-1-yl-benzyl)-9H-purine-2,6-diamine] | 260 | 186 to 187 | 142 | 2.01 | 2.59 | >5.00 | >5.00 | >5.00 | >5.00 | 6.18 | 6.81 | 9.80 | 9.65 | 58 | 1.98 |
| NC1CCC(Nc2nc(NCc3ccc(-c4cccs4)nc3)c3ncn(C4CCCC4)c3n2)CC1 (stereo not drawn) [BP30, N^2-(4-amino-cyclohexyl)-9-cyclopentyl-N^6-(6-thiophen-2-yl-pyridin-3-ylmethyl)-9H-purine-2,6-diamine] | 120 | 151 to 153 | 206 | 2.46 | 3.93 | >5.00 | >5.00 | >5.00 | >5.00 | 5.32 | 8.08 | 9.00 | 9.43 | 49 | 2.99 |
